Data as given in patent publication US20250223268A1, “4-Methylsulfonylbenzamide Compound, Preparation Method, Herbicidal Composition And Use” (Jiangsu Flag Chemical Industry Co., Ltd., priority 2022, published 2025).

Columns and labels:
Format in all cases: in vivo
[1] = test system: Oryza sativa subsp. japonica; assay: Greenhouse herbicidal activity and crop safety comparison (Test Example 2); details: Rate 150 g/ha
Outline: (§1)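 Fresh weight inhibition, banded into grades A to E (E <20%), was rated 14-21 days after foliar spraying of 3-6 leaf plants, or 14-30 days after a soil spray applied 24 h post-sowing.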

Leptochloa chinensis [2] = assay: as above; details: Rate 150 g/ha
Outline: as §1

[3] = test system: Oryza sativa subsp. indica; assay: as above; details: Rate 150 g/ha
Outline: as §1

Echinochloa crusgalli [4] = assay: as above; details: Rate 150 g/ha
Outline: as §1

Leptochloa chinensis [5] = assay: Greenhouse herbicidal activity assay, post-emergence; details: Post-emergence test, rate 150 g a.i./hm^2, grade by fresh weight inhibition rate
Outline: (§2)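 Scores reflect fresh weight inhibition assessed 14-21 days after treatment, with grade A meaning ≥80% to 100% and grade E meaning <20%. Plants, raised in nutrient-soil pots inside a growth chamber, were sprayed on the foliage at the 3-6 leaf stage.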

Eclipta prostrata = assay: as above; details: Post-emergence test, rate 150 g a.i./hm^2, grade by fresh weight inhibition rate
Outline: as §2

Echinochloa crusgalli [6] = assay: as above; details: Post-emergence test, rate 150 g a.i./hm^2, grade by fresh weight inhibition rate
Outline: as §2

Cyperus iria = assay: as above; details: Post-emergence test, rate 150 g a.i./hm^2, grade by fresh weight inhibition rate
Outline: as §2

Digitaria sanguinalis = assay: as above; details: Post-emergence test, rate 150 g a.i./hm^2, grade by fresh weight inhibition rate
Outline: as §2

Row | SMILES | Oryza sativa subsp. japonica, grading of fresh weight inhibition rate (crop safety) [1] | Leptochloa chinensis, control efficacy grading (fresh weight inhibition rate) (Leptochloa chinensis [2]) | Oryza sativa subsp. indica, grading of fresh weight inhibition rate (crop safety) [3] | Echinochloa crusgalli, control efficacy grading (fresh weight inhibition rate) (Echinochloa crusgalli [4]) | Control efficacy grade, Leptochloa chinensis (Leptochloa chinensis [5]) | Control efficacy grade, Eclipta prostrata (Eclipta prostrata) | Control efficacy grade, Echinochloa crusgalli (Echinochloa crusgalli [6]) | Control efficacy grade, Cyperus iria (Cyperus iria) | Control efficacy grade, Digitaria sanguinalis (Digitaria sanguinalis) | inhibition at 150 g/ha (Leptochloa chinensis [2]; Dinebra chinensis, read-out: Leptochloa chinensis, control efficacy grading (fresh weight inhibition rate)) [%] | inhibition at 150 g/ha (Echinochloa crusgalli [4]; Echinochloa crus-galli, read-out: Echinochloa crusgalli, control efficacy grading (fresh weight inhibition rate)) [%] | pest or weed control at 150 g/ha (Leptochloa chinensis [5]; Dinebra chinensis, read-out: Control efficacy grade, Leptochloa chinensis) [%] | pest or weed control at 150 g/ha (Eclipta prostrata; Eclipta prostrata, read-out: Control efficacy grade, Eclipta prostrata) [%] | pest or weed control at 150 g/ha (Echinochloa crusgalli [6]; Echinochloa crus-galli, read-out: Control efficacy grade, Echinochloa crusgalli) [%] | pest or weed control at 150 g/ha (Cyperus iria; Cyperus iria, read-out: Control efficacy grade, Cyperus iria) [%] | pest or weed control at 150 g/ha (Digitaria sanguinalis; Digitaria sanguinalis, read-out: Control efficacy grade, Digitaria sanguinalis) [%]
1 | Cc1nnc(NC(=O)c2ccc(S(C)(=O)=O)c(S(=O)(=O)C3CCCC3)c2Cl)o1 [Compound 3-91] | E (Fresh weight inhibition rate<20%) | A (Fresh weight inhibition rate≥80% to 100%) | E (Fresh weight inhibition rate<20%) | A (Fresh weight inhibition rate≥80% to 100%) | A (Fresh weight inhibition rate≥80% to 100%) | A (Fresh weight inhibition rate≥80% to 100%) | A (Fresh weight inhibition rate≥80% to 100%) | A (Fresh weight inhibition rate≥80% to 100%) | A (Fresh weight inhibition rate≥80% to 100%) | – | – | – | – | – | – | –
2 | Cc1nnc(NC(=O)c2ccc(S(C)(=O)=O)c(S(=O)(=O)CC(F)(F)F)c2Cl)o1 [Compound 3-101] | E (Fresh weight inhibition rate<20%) | A (Fresh weight inhibition rate≥80% to 100%) | E (Fresh weight inhibition rate<20%) | A (Fresh weight inhibition rate≥80% to 100%) | A (Fresh weight inhibition rate≥80% to 100%) | A (Fresh weight inhibition rate≥80% to 100%) | A (Fresh weight inhibition rate≥80% to 100%) | A (Fresh weight inhibition rate≥80% to 100%) | A (Fresh weight inhibition rate≥80% to 100%) | – | – | – | – | – | – | –
3 | C=CCS(=O)(=O)c1c(S(C)(=O)=O)ccc(C(=O)Nc2nnc(C)o2)c1Cl [Compound 3-116] | E (Fresh weight inhibition rate<20%) | A (Fresh weight inhibition rate≥80% to 100%) | E (Fresh weight inhibition rate<20%) | A (Fresh weight inhibition rate≥80% to 100%) | A (Fresh weight inhibition rate≥80% to 100%) | A (Fresh weight inhibition rate≥80% to 100%) | A (Fresh weight inhibition rate≥80% to 100%) | C (Fresh weight inhibition rate≥40% to <60%) | A (Fresh weight inhibition rate≥80% to 100%) | – | – | – | – | – | – | –
4 | CCCS(=O)(=O)c1c(S(C)(=O)=O)ccc(C(=O)Nc2nnco2)c1Cl [Compound 3-271, 2-chloro-4-(methylsulfonyl)-N-(1,3,4-oxadiazol-2-yl)-3-(propylsulfonyl)benzamide] | E (Fresh weight inhibition rate<20%) | – | E (Fresh weight inhibition rate<20%) | – | – | – | – | – | – | 80 to 100 | 80 to 100 | 80 to 100 | 80 to 100 | 80 to 100 | 80 to 100 | 80 to 100
5 | CC(C)S(=O)(=O)c1c(S(C)(=O)=O)ccc(C(=O)Nc2nnco2)c1Cl [Compound 3-276] | E (Fresh weight inhibition rate<20%) | A (Fresh weight inhibition rate≥80% to 100%) | E (Fresh weight inhibition rate<20%) | A (Fresh weight inhibition rate≥80% to 100%) | A (Fresh weight inhibition rate≥80% to 100%) | A (Fresh weight inhibition rate≥80% to 100%) | A (Fresh weight inhibition rate≥80% to 100%) | A (Fresh weight inhibition rate≥80% to 100%) | A (Fresh weight inhibition rate≥80% to 100%) | – | – | – | – | – | – | –
6 | CS(=O)(=O)c1ccc(C(=O)Nc2nnco2)c(Cl)c1S(=O)(=O)CC1CC1 [Compound 3-302] | E (Fresh weight inhibition rate<20%) | A (Fresh weight inhibition rate≥80% to 100%) | E (Fresh weight inhibition rate<20%) | A (Fresh weight inhibition rate≥80% to 100%) | A (Fresh weight inhibition rate≥80% to 100%) | A (Fresh weight inhibition rate≥80% to 100%) | A (Fresh weight inhibition rate≥80% to 100%) | A (Fresh weight inhibition rate≥80% to 100%) | A (Fresh weight inhibition rate≥80% to 100%) | – | – | – | – | – | – | –
7 | CS(=O)(=O)c1ccc(C(=O)Nc2nnco2)c(Cl)c1S(=O)(=O)C1CC1 [Compound 3-307] | E (Fresh weight inhibition rate<20%) | A (Fresh weight inhibition rate≥80% to 100%) | E (Fresh weight inhibition rate<20%) | A (Fresh weight inhibition rate≥80% to 100%) | A (Fresh weight inhibition rate≥80% to 100%) | A (Fresh weight inhibition rate≥80% to 100%) | A (Fresh weight inhibition rate≥80% to 100%) | A (Fresh weight inhibition rate≥80% to 100%) | A (Fresh weight inhibition rate≥80% to 100%) | – | – | – | – | – | – | –
8 | CS(=O)(=O)c1ccc(C(=O)Nc2nnco2)c(Cl)c1S(=O)(=O)C1CCC1 [Compound 3-312] | E (Fresh weight inhibition rate<20%) | A (Fresh weight inhibition rate≥80% to 100%) | E (Fresh weight inhibition rate<20%) | A (Fresh weight inhibition rate≥80% to 100%) | A (Fresh weight inhibition rate≥80% to 100%) | A (Fresh weight inhibition rate≥80% to 100%) | A (Fresh weight inhibition rate≥80% to 100%) | A (Fresh weight inhibition rate≥80% to 100%) | A (Fresh weight inhibition rate≥80% to 100%) | – | – | – | – | – | – | –
9 | CS(=O)(=O)c1ccc(C(=O)Nc2nnco2)c(Cl)c1S(=O)(=O)C1CCCC1 [Compound 3-317] | E (Fresh weight inhibition rate<20%) | A (Fresh weight inhibition rate≥80% to 100%) | E (Fresh weight inhibition rate<20%) | A (Fresh weight inhibition rate≥80% to 100%) | A (Fresh weight inhibition rate≥80% to 100%) | A (Fresh weight inhibition rate≥80% to 100%) | A (Fresh weight inhibition rate≥80% to 100%) | A (Fresh weight inhibition rate≥80% to 100%) | A (Fresh weight inhibition rate≥80% to 100%) | – | – | – | – | – | – | –
10 | CS(=O)(=O)c1ccc(C(=O)Nc2nnco2)c(Cl)c1S(=O)(=O)CC(F)(F)F [Compound 3-327] | E (Fresh weight inhibition rate<20%) | A (Fresh weight inhibition rate≥80% to 100%) | E (Fresh weight inhibition rate<20%) | A (Fresh weight inhibition rate≥80% to 100%) | A (Fresh weight inhibition rate≥80% to 100%) | A (Fresh weight inhibition rate≥80% to 100%) | A (Fresh weight inhibition rate≥80% to 100%) | A (Fresh weight inhibition rate≥80% to 100%) | B (Fresh weight inhibition rate≥260% to <80%) | – | – | – | – | – | – | –
